Laboratory results published in PubChem BioAssay (NCI).
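Exposure lasted 48 hours, with cells grown in 96-well plates and compounds tested at five concentrations. TGI: total growth inhibition.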

Tested on: SK-MEL-2 melanoma
Assay: NCI tumour cell line growth inhibition, 48 h

Row | Structure (SMILES) | TGI [µM]
1 | CC(N)Cc1ccc(C(=O)Cl)cc1 (centres undefined) | > 100

Tested on: SK-MEL-28 melanoma
Assay: NCI tumour cell line growth inhibition, 48 h

Row | Structure (SMILES) | TGI [µM]
2 | CCN(CC)CCC(=O)Nc1ccc2c(c1)C(=O)c1ccc(NC(=O)CCN(CC)CC)cc1C2=O | 24.6
3 | COc1cc2c(cc1OC)-c1c3cc(O)ccc3nn[n+]1CC2 | > 100
4 | CCCCCCCCCCCCCCCCCC(CCCCCCCCCCCCCCCCC)OP(=O)(O)O | > 100
5 | O=C(COc1ccc(Br)cc1Br)N1N=C(c2ccc([N+](=O)[O-])o2)CC1(O)c1ccccc1 (centres undefined) | 28
6 | CNS(=O)(=O)NNS(=O)(=O)c1ccc2ccccc2c1 | > 100
7 | CCOC(=O)CN1C(=O)c2cccc3cc([N+](=O)[O-])cc(c23)C1=O | 7.39
8 | CC(N)Cc1ccc(C(=O)Cl)cc1 (centres undefined) | > 100

Tested on: SK-MEL-5 melanoma
Assay: NCI tumour cell line growth inhibition, 48 h

Row | Structure (SMILES) | TGI [µM]
9 | CCN(CC)CCC(=O)Nc1ccc2c(c1)C(=O)c1ccc(NC(=O)CCN(CC)CC)cc1C2=O | 19.8
10 | COc1cc2c(cc1OC)-c1c3cc(O)ccc3nn[n+]1CC2 | > 100
11 | CCCCCCCCCCCCCCCCCC(CCCCCCCCCCCCCCCCC)OP(=O)(O)O | > 100
12 | O=C(COc1ccc(Br)cc1Br)N1N=C(c2ccc([N+](=O)[O-])o2)CC1(O)c1ccccc1 (centres undefined) | 16.1
13 | CNS(=O)(=O)NNS(=O)(=O)c1ccc2ccccc2c1 | > 100
14 | CCOC(=O)CN1C(=O)c2cccc3cc([N+](=O)[O-])cc(c23)C1=O | 25.5
15 | CC(N)Cc1ccc(C(=O)Cl)cc1 (centres undefined) | > 100

Tested on: SK-OV-3 ovarian
Assay: NCI tumour cell line growth inhibition, 48 h

Row | Structure (SMILES) | TGI [µM]
16 | CCN(CC)CCC(=O)Nc1ccc2c(c1)C(=O)c1ccc(NC(=O)CCN(CC)CC)cc1C2=O | 21.7
17 | COc1cc2c(cc1OC)-c1c3cc(O)ccc3nn[n+]1CC2 | > 100
18 | CCCCCCCCCCCCCCCCCC(CCCCCCCCCCCCCCCCC)OP(=O)(O)O | > 100
19 | O=C(COc1ccc(Br)cc1Br)N1N=C(c2ccc([N+](=O)[O-])o2)CC1(O)c1ccccc1 (centres undefined) | > 100
20 | CNS(=O)(=O)NNS(=O)(=O)c1ccc2ccccc2c1 | > 100
21 | CCOC(=O)CN1C(=O)c2cccc3cc([N+](=O)[O-])cc(c23)C1=O | 41
22 | CC(N)Cc1ccc(C(=O)Cl)cc1 (centres undefined) | > 100

Tested on: SN12C renal
Assay: NCI tumour cell line growth inhibition, 48 h

Row | Structure (SMILES) | TGI [µM]
23 | CCN(CC)CCC(=O)Nc1ccc2c(c1)C(=O)c1ccc(NC(=O)CCN(CC)CC)cc1C2=O | 13.4
24 | COc1ccc(C(=O)C(C(=O)CCC(=O)Nc2ccc(C)c(C)c2)c2ccc(OC)cc2)cc1 (centres undefined) | > 100
25 | COc1cc2c(cc1OC)-c1c3cc(O)ccc3nn[n+]1CC2 | > 100
26 | CCCCCCCCCCCCCCCCCC(CCCCCCCCCCCCCCCCC)OP(=O)(O)O | > 100
27 | O=C(COc1ccc(Br)cc1Br)N1N=C(c2ccc([N+](=O)[O-])o2)CC1(O)c1ccccc1 (centres undefined) | 25.7
28 | CNS(=O)(=O)NNS(=O)(=O)c1ccc2ccccc2c1 | > 100
29 | CCOC(=O)CN1C(=O)c2cccc3cc([N+](=O)[O-])cc(c23)C1=O | 17.2
30 | CC(N)Cc1ccc(C(=O)Cl)cc1 (centres undefined) | > 100

Tested on: SNB-19 CNS
Assay: NCI tumour cell line growth inhibition, 48 h

Row | Structure (SMILES) | TGI [µM]
31 | CCN(CC)CCC(=O)Nc1ccc2c(c1)C(=O)c1ccc(NC(=O)CCN(CC)CC)cc1C2=O | 18.6
32 | COc1cc2c(cc1OC)-c1c3cc(O)ccc3nn[n+]1CC2 | > 100
33 | CCCCCCCCCCCCCCCCCC(CCCCCCCCCCCCCCCCC)OP(=O)(O)O | > 100
34 | O=C(COc1ccc(Br)cc1Br)N1N=C(c2ccc([N+](=O)[O-])o2)CC1(O)c1ccccc1 (centres undefined) | 68.2
35 | CNS(=O)(=O)NNS(=O)(=O)c1ccc2ccccc2c1 | > 100
36 | CCOC(=O)CN1C(=O)c2cccc3cc([N+](=O)[O-])cc(c23)C1=O | 32.3

Tested on: SNB-75 CNS
Assay: NCI tumour cell line growth inhibition, 48 h

Row | Structure (SMILES) | TGI [µM]
37 | CCN(CC)CCC(=O)Nc1ccc2c(c1)C(=O)c1ccc(NC(=O)CCN(CC)CC)cc1C2=O | 31.9
38 | COc1cc2c(cc1OC)-c1c3cc(O)ccc3nn[n+]1CC2 | > 100
39 | CCCCCCCCCCCCCCCCCC(CCCCCCCCCCCCCCCCC)OP(=O)(O)O | > 100
40 | O=C(COc1ccc(Br)cc1Br)N1N=C(c2ccc([N+](=O)[O-])o2)CC1(O)c1ccccc1 (centres undefined) | 45
41 | CNS(=O)(=O)NNS(=O)(=O)c1ccc2ccccc2c1 | > 100
42 | CCOC(=O)CN1C(=O)c2cccc3cc([N+](=O)[O-])cc(c23)C1=O | 22.2
43 | CC(N)Cc1ccc(C(=O)Cl)cc1 (centres undefined) | > 100

Tested on: SNB-78 CNS
Assay: NCI tumour cell line growth inhibition, 48 h

Row | Structure (SMILES) | TGI [µM]
44 | CCN(CC)CCC(=O)Nc1ccc2c(c1)C(=O)c1ccc(NC(=O)CCN(CC)CC)cc1C2=O | 48.3
45 | COc1cc2c(cc1OC)-c1c3cc(O)ccc3nn[n+]1CC2 | > 100
46 | CCCCCCCCCCCCCCCCCC(CCCCCCCCCCCCCCCCC)OP(=O)(O)O | > 100
47 | O=C(COc1ccc(Br)cc1Br)N1N=C(c2ccc([N+](=O)[O-])o2)CC1(O)c1ccccc1 (centres undefined) | > 100
48 | CNS(=O)(=O)NNS(=O)(=O)c1ccc2ccccc2c1 | > 100
49 | CCOC(=O)CN1C(=O)c2cccc3cc([N+](=O)[O-])cc(c23)C1=O | 19.3

Tested on: SR leukemia
Assay: NCI tumour cell line growth inhibition, 48 h

Row | Structure (SMILES) | TGI [µM]
50 | CCN(CC)CCC(=O)Nc1ccc2c(c1)C(=O)c1ccc(NC(=O)CCN(CC)CC)cc1C2=O | 14.5
51 | COc1ccc(C(=O)C(C(=O)CCC(=O)Nc2ccc(C)c(C)c2)c2ccc(OC)cc2)cc1 (centres undefined) | > 100
52 | CCCCCCCCCCCCCCCCCC(CCCCCCCCCCCCCCCCC)OP(=O)(O)O | > 100
53 | O=C(COc1ccc(Br)cc1Br)N1N=C(c2ccc([N+](=O)[O-])o2)CC1(O)c1ccccc1 (centres undefined) | 8.77
54 | CNS(=O)(=O)NNS(=O)(=O)c1ccc2ccccc2c1 | > 100
55 | CCOC(=O)CN1C(=O)c2cccc3cc([N+](=O)[O-])cc(c23)C1=O | 0.381

Tested on: SW-620 colon
Assay: NCI tumour cell line growth inhibition, 48 h

Row | Structure (SMILES) | TGI [µM]
56 | CCN(CC)CCC(=O)Nc1ccc2c(c1)C(=O)c1ccc(NC(=O)CCN(CC)CC)cc1C2=O | 6.93
57 | COc1ccc(C(=O)C(C(=O)CCC(=O)Nc2ccc(C)c(C)c2)c2ccc(OC)cc2)cc1 (centres undefined) | > 100
58 | COc1cc2c(cc1OC)-c1c3cc(O)ccc3nn[n+]1CC2 | > 100
59 | CCCCCCCCCCCCCCCCCC(CCCCCCCCCCCCCCCCC)OP(=O)(O)O | > 100
60 | O=C(COc1ccc(Br)cc1Br)N1N=C(c2ccc([N+](=O)[O-])o2)CC1(O)c1ccccc1 (centres undefined) | 33.3
61 | CNS(=O)(=O)NNS(=O)(=O)c1ccc2ccccc2c1 | > 100
62 | CCOC(=O)CN1C(=O)c2cccc3cc([N+](=O)[O-])cc(c23)C1=O | 2.99
63 | CC(N)Cc1ccc(C(=O)Cl)cc1 (centres undefined) | > 100

Tested on: TK-10 renal
Assay: NCI tumour cell line growth inhibition, 48 h

Row | Structure (SMILES) | TGI [µM]
64 | CCN(CC)CCC(=O)Nc1ccc2c(c1)C(=O)c1ccc(NC(=O)CCN(CC)CC)cc1C2=O | 18.9
65 | COc1cc2c(cc1OC)-c1c3cc(O)ccc3nn[n+]1CC2 | > 100
66 | CCCCCCCCCCCCCCCCCC(CCCCCCCCCCCCCCCCC)OP(=O)(O)O | > 100
67 | CNS(=O)(=O)NNS(=O)(=O)c1ccc2ccccc2c1 | > 100
68 | CCOC(=O)CN1C(=O)c2cccc3cc([N+](=O)[O-])cc(c23)C1=O | 30.7
69 | CC(N)Cc1ccc(C(=O)Cl)cc1 (centres undefined) | > 100

Tested on: U251 CNS
Assay: NCI tumour cell line growth inhibition, 48 h

Row | Structure (SMILES) | TGI [µM]
70 | CCN(CC)CCC(=O)Nc1ccc2c(c1)C(=O)c1ccc(NC(=O)CCN(CC)CC)cc1C2=O | 21.2
71 | COc1cc2c(cc1OC)-c1c3cc(O)ccc3nn[n+]1CC2 | > 100
72 | CCCCCCCCCCCCCCCCCC(CCCCCCCCCCCCCCCCC)OP(=O)(O)O | > 100
73 | O=C(COc1ccc(Br)cc1Br)N1N=C(c2ccc([N+](=O)[O-])o2)CC1(O)c1ccccc1 (centres undefined) | 22.9
74 | CNS(=O)(=O)NNS(=O)(=O)c1ccc2ccccc2c1 | > 100
75 | CCOC(=O)CN1C(=O)c2cccc3cc([N+](=O)[O-])cc(c23)C1=O | 20.3
76 | CC(N)Cc1ccc(C(=O)Cl)cc1 (centres undefined) | > 100

Tested on: UACC-257 melanoma
Assay: NCI tumour cell line growth inhibition, 48 h

Row | Structure (SMILES) | TGI [µM]
77 | CCN(CC)CCC(=O)Nc1ccc2c(c1)C(=O)c1ccc(NC(=O)CCN(CC)CC)cc1C2=O | 29.7
78 | COc1ccc(C(=O)C(C(=O)CCC(=O)Nc2ccc(C)c(C)c2)c2ccc(OC)cc2)cc1 (centres undefined) | > 100
79 | CCCCCCCCCCCCCCCCCC(CCCCCCCCCCCCCCCCC)OP(=O)(O)O | > 100
80 | O=C(COc1ccc(Br)cc1Br)N1N=C(c2ccc([N+](=O)[O-])o2)CC1(O)c1ccccc1 (centres undefined) | 45.4
81 | CNS(=O)(=O)NNS(=O)(=O)c1ccc2ccccc2c1 | > 100
82 | CCOC(=O)CN1C(=O)c2cccc3cc([N+](=O)[O-])cc(c23)C1=O | 7.73
83 | CC(N)Cc1ccc(C(=O)Cl)cc1 (centres undefined) | > 100

Tested on: UACC-62 melanoma
Assay: NCI tumour cell line growth inhibition, 48 h

Row | Structure (SMILES) | TGI [µM]
84 | CCN(CC)CCC(=O)Nc1ccc2c(c1)C(=O)c1ccc(NC(=O)CCN(CC)CC)cc1C2=O | 22.3
85 | COc1cc2c(cc1OC)-c1c3cc(O)ccc3nn[n+]1CC2 | > 100
86 | CCCCCCCCCCCCCCCCCC(CCCCCCCCCCCCCCCCC)OP(=O)(O)O | > 100
87 | O=C(COc1ccc(Br)cc1Br)N1N=C(c2ccc([N+](=O)[O-])o2)CC1(O)c1ccccc1 (centres undefined) | 18.7
88 | CNS(=O)(=O)NNS(=O)(=O)c1ccc2ccccc2c1 | > 100
89 | CCOC(=O)CN1C(=O)c2cccc3cc([N+](=O)[O-])cc(c23)C1=O | 5.2
90 | CC(N)Cc1ccc(C(=O)Cl)cc1 (centres undefined) | > 100

Tested on: UO-31 renal
Assay: NCI tumour cell line growth inhibition, 48 h

Row | Structure (SMILES) | TGI [µM]
91 | CCN(CC)CCC(=O)Nc1ccc2c(c1)C(=O)c1ccc(NC(=O)CCN(CC)CC)cc1C2=O | > 100
92 | COc1ccc(C(=O)C(C(=O)CCC(=O)Nc2ccc(C)c(C)c2)c2ccc(OC)cc2)cc1 (centres undefined) | > 100
93 | CCCCCCCCCCCCCCCCCC(CCCCCCCCCCCCCCCCC)OP(=O)(O)O | > 100
94 | O=C(COc1ccc(Br)cc1Br)N1N=C(c2ccc([N+](=O)[O-])o2)CC1(O)c1ccccc1 (centres undefined) | 21.3
95 | CNS(=O)(=O)NNS(=O)(=O)c1ccc2ccccc2c1 | > 100
96 | CCOC(=O)CN1C(=O)c2cccc3cc([N+](=O)[O-])cc(c23)C1=O | 27

Tested on: XF 498 CNS
Assay: NCI tumour cell line growth inhibition, 48 h

Row | Structure (SMILES) | TGI [µM]
97 | COc1cc2c(cc1OC)-c1c3cc(O)ccc3nn[n+]1CC2 | > 100
98 | CCOC(=O)CN1C(=O)c2cccc3cc([N+](=O)[O-])cc(c23)C1=O | 4.49
99 | CC(N)Cc1ccc(C(=O)Cl)cc1 (centres undefined) | > 100
